Values quoted from earlier work, collected in US20230131804A1, “FARNESOID X RECEPTOR AGONISTS FOR THE TREATMENT OF DISEASE” (Metacrine, Inc., priority 2020, published 2023).
Entries after “also recorded” stand apart in the source; their conditions may differ.

Details: published clinical studies, higher administered doses; cited from earlier work

In the case of `CC[C@H]1[C@@H](O)[C@@H]2[C@H](CC[C@]3(C)[C@@H]([C@H](C)CCC(=O)O)CC[C@@H]23)[C@@]2(C)CC[C@@H](O)C[C@@H]12` [OCA, Obeticholic acid], the adverse side effects is given as “pruritis, increased LDL cholesterol and liver toxicity; also recorded: adverse effects of increased LDL cholesterol and liver toxicity”.
